What all share (format): in vivo, human
Series [1] has as its system patients with non-small cell lung cancer. Put plainly: Randomized, double-blind, placebo-controlled trial in non-small cell lung cancer patients (Example 3). The following applies: for progression-free survival (PFS, month) Mean / progression-free survival (PFS, month) P25 / progression-free survival (PFS, month) P50 / progression-free survival (PFS, month) P75: 12 mg once daily, two weeks on, one week rest. From the text: (§1) In this paper, progression-free survival P25 refers to the time that 75% of the patients who participated in the disease had no progress in disease; Progressive survival P50 refers to the time that 50% of the patients who participated in the disease had no progress in disease; Progression-free survival P75 refers to the time that 25% of the patients who participated in the disease had no progress in disease; the progression-free survival was the mean value of the progression-free survival of the patient who participated in the results of statistics.
Randomized, double-blind, placebo-controlled trials were performed in patients with measurable lesions which were pathologically diagnosedas non-small cell lung cancer, who had received second-line or higher-line therapy, or those who were intolerable to aforementioned treatment, and who had been treated with other cytotoxic drugs, radiotherapy or surgery for more than four weeks. In this study, efficacy of the capsules of dihydrochloride of compound I was initially evaluated against placebo in the treatment of patients with non-small cell lung cancer. The primary outcome of the evaluation was progression-free survival (PFS). 117 patients with non-small cell lung cancer enrolled in this study, whose age was between 18-70. Among them, 57 patients were randomized into placebo group and 60 patients randomized into dihydrochloride of compound I group.
The above-mentioned eligible non-small cell lung cancer patients were treated with dihydrochloride of compound I/placebo for clinical trials. They were administered 12 mg/0 mg of compound I/placebo individually once daily for consecutive two weeks followed by one-week rest from administration, namely the period of a cycle regimen was three weeks (21 days), those who were ineligible for continuous therapy or whose disease were progressive disease (PD) according to the reassessment were excluded from the medication.
Results: A total of 117 patients with non-small cell lung cancer were enrolled in the study, including 57 patients randomized into placebo group and 60 patients randomized into dihydrochloride of compound I group. 43 patients in placebo group and 30 patients in dihydrochloride of compound I group were involved in data statistics, the remaining patients who dropped out or excluded from the study or those were still in follow-up were not included in the statistics.

In series [2] the test system is patients with lung adenocarcinoma. The series can be described thus: Randomized, double-blind, placebo-controlled trial in lung adenocarcinoma patients (Example 4).
Description: as §1
Randomized, double-blind, placebo-controlled trials were performed in patients with measurable lesions which were pathologically diagnosedas lung adenocarcinoma, who had received second-line or higher-line therapy, or those who were intolerable to the aforementioned treatment, and who had been treated with other cytotoxic drugs, radiotherapy or surgery for more than four weeks. In this study, efficacy of the capsules of dihydrochloride of compound I was initially evaluated against placebo in the treatment of patients with lung adenocarcinoma. The primary outcome of the evaluation was progression-free survival (PFS). 104 patients with lung adenocarcinoma enrolled in this study, whose age was between 18-70. Among them, 50 patients were randomized into placebo group and 54 patients randomized into dihydrochloride of compound I group.
The above-mentioned eligible lung adenocarcinoma patients were treated with dihydrochloride of compound I/placebo for clinical trials. They were administered 12 mg/0 mg of compound I/placebo individually once daily for consecutive two weeks followed by one-week rest from administration, namely the period of a cycle regimen was three weeks (21 days), those who were ineligible for continuous therapy or whose disease were progressive disease (PD) according to the reassessment were excluded from the medication.
Results: A total of 104 patients with lung adenocarcinoma were enrolled in the study, including 50 patients randomized into placebo group and 54 patients randomized into dihydrochloride of compound I group. 37 patients in placebo group and 30 patients in dihydrochloride of compound I group were involved in data statistics, the remaining patients who dropped out or excluded from the study or those were still in follow-up were not included in the statistics.

Series [3] concerns right lower lung adenocarcinoma (T4N2M1b, stage IV). The series can be described thus: Case report, stage IV lung adenocarcinoma (Example 5). Conditions: for sum of the longest diameter of the two measurable lesions: baseline 45.7 mm.
Description: 3, 2013, the capsule of dihydrochloride of compound I was taken orally at 12 mg once daily with repeated treatment cycles (treatment given for consecutive two weeks followed by one week of rest is one treatment cycle). Treatment toxicities were assessed at 4-week follow-up, and the number of blood cells and blood chemistry were analyzed every two or three weeks, treatment response was assessed based on CT scan as well.
Series [4] deals with left upper lobe lung adenocarcinoma (T4N3M1a, stage IV). The series can be described thus: Case report, stage IV lung adenocarcinoma (Example 6). Conditions: for sum of the diameter of two measurable target lesions: baseline 58 mm. The protocol:
A retired person, smoking for 30 years (20 cigarettes/day), underwent thyroid adenoma resection 10 years ago. […] From Aug. 1, 2013 to Sep. […] From Dec. 26, 2013 to Jan. […] On Jan. […] On Feb.
From Feb. 28, 2014, the capsule of dihydrochloride of compound I was taken orally at 12 mg once daily with repeated treatment cycles (treatment given for consecutive two weeks followed by one week of rest is one treatment cycle).

Series [5] deals with non-small cell lung cancer. Put plainly: Case report, non-small cell lung cancer, EGFR gene no mutation (Example 7). From the text:
From Jun. […] From Oct. […] On Jan. […] From Jan. […] On Jul.

The test system of series [6] is non-small cell lung cancer squamous cell carcinoma. Put plainly: Case report, non-small cell lung cancer squamous cell carcinoma (Example 8). The protocol: EML4-ALK fusion gene had no mutation, EGFR gene had no mutation by gene detection.
From Mar. 26, 2013 to Jun. 5, 2013, the patient was treated with cisplatin and gemcitabine chemotherapy for 4 cycles, and the best efficacy was SD. After the end of the chemotherapy, they were treated with the local radiotherapy of the lung for 1 cycle, during which the adverse reactions was light. From Sep. 9, 2013 to Oct. 6, 2013, the patient was treated with cisplatin and gemcitabine chemotherapy for 2 cycles. December 2013, disease was found progression by review of CT. From Mar. 24, 2014, the patient was treated with docetaxel chemotherapy for 1 cycle. […] On Dec. […] Double lungs had multiple pulmonary bullae, which changed little than before; 3. Double lungs had inflammation, the scope of which was smaller than before; 4. Left clavicle, mediastinal and right hilar had multiple lymph nodes, which were slightly larger than before. From Jan. 7, 2015 to Jan. […] On Mar. […] On Mar. 6, 2015, the patient was treated with oral Tiggio treatment. […] On Jun.
From Jun. 4, 2015, the patient received dihydrochloride of compound I capsule treatment that one cycle plan was 12 mg dose once, q.d., and continuous medication for 2 weeks, and then suspended medication for 1 week. On Jun.

The mark [7] stands for this setting: lung adenocarcinoma, 12 mg once daily, two weeks on, one week rest.
Where [8] appears, read: after ten treatment cycles (210 days).
Where [9] appears, read: after three-week administration.

Counter-ions that a name gives are not always drawn.

The results in this text go back to patent publication US10307412B2, “Quinoline derivative against non-small cell lung cancer” (CHIA TAI TIANQING PHARMACEUTICAL GROUP CO., LTD., priority 2014, dated 2019).

In the case of `COc1cc2c(Oc3ccc4[nH]c(C)cc4c3F)ccnc2cc1OCC1(N)CC1` [dihydrochloride of compound I, 1-[[[4-(4-fluoro-2-methyl-1H-indol-5-yl)oxy-6-methoxyquinolin-7-yl]oxy]methyl]cyclopropylamine dihydrochloride], the “progression-free survival (PFS, month) Mean” value in series [1] (age > 60) is recorded as 5.84 month; in series [1] (age ≤ 60), 4.48 month; in series [2] (setting [7]) it was 4.77 month. In addition, the “progression-free survival (PFS, month) P25” value is 2.83 month in series [1] (age > 60), 2.77 month in series [1] (age ≤ 60) and 2.77 month in series [2] (setting [7]). The “progression-free survival (PFS, month) P50” value was 6.40 month in series [1] (age > 60), 4.30 month in series [1] (age ≤ 60) and 4.33 month in series [2] (setting [7]). The “progression-free survival (PFS, month) P75” value in series [1] (age > 60) worked out at 8.30 month; in series [1] (age ≤ 60), 6.17 month; in series [2] (setting [7]), 6.87 month. For the same compound, the “effect on progression-free survival versus placebo” value in series [1] (patients with non-small cell lung cancer) and in series [2] (patients with lung adenocarcinoma) was “significantly prolong progression-free survival” in each case. For the same compound, the tolerance result in series [3] (12 mg once daily orally) is recorded as “well tolerated”; in series [4] (12 mg once daily orally) it was “generally well tolerated”. Moreover, the “reduction of sum of the longest diameter” value came out at 43.1% in series [3] (setting [8]) and 31.22% in series [3] (after treatment for 6 weeks). Also, the “sum of the longest diameter of the two measurable lesions” value in series [3] (setting [8]) came out at 26 mm; in series [3] (after treatment for 6 weeks, 12 mg once daily orally) it was 31.43 mm. In addition, the “blood routine examinations including the number of blood cells” value in series [3] (during treatment) is on record as “not significantly altered”. The “lesion in anterior segment of left upper lobe lung, diameter” value in series [4] (after 15-week administration) is listed as 10 mm; in series [4] (after nine-week administration), 10 mm; in series [4] (after three-week administration, baseline 37 mm) it was 18 mm; in series [4] (six weeks administration) it was 14 mm; in series [4] (twelve weeks administration), 10 mm. The “lesion in mediastinal lymph node, diameter” value came out at 15 mm in series [4] (after 15-week administration); 16 mm in series [4] (after nine-week administration); 18 mm in series [4] (after three-week administration, baseline 21 mm); 15 mm in series [4] (six weeks administration); 16 mm in series [4] (twelve weeks administration). For the same compound, the “reduction of sum of target lesions” value is given as 56.9% in series [4] (after 15-week administration); 55.2% in series [4] (after nine-week administration); 37.9% in series [4] (setting [9]); 50% in series [4] (six weeks administration); 55.2% in series [4] (twelve weeks administration). For the same compound, the “sum of the diameter of two measurable target lesions” value in series [4] (after 15-week administration) is reported as 25 mm; in series [4] (after nine-week administration), 26 mm; in series [4] (setting [9]), 36 mm; in series [4] (six weeks administration) it was 29 mm; in series [4] (twelve weeks administration), 26 mm. Moreover, the blood changes result in series [4] (during treatment) was “not significant”. In addition, in series [4] (during treatment), the heart toxicity entry is “no heart toxicity related to the drug”. Besides, the “progression of non-target lesions and new lesions” value in series [4] (during treatment) is “not observed”. In series [4] (given for 279 days, 14th treatment cycle), the “response and clinical performance” value is “sustained response against tumor and good clinical performance”. The “left temporal lobe nodules, head enhancement CT” value in series [5] (Aug. 20, 2015) is recorded as “slightly smaller than baseline”. In addition, the “tolerability of adverse reactions” value in series [5] (until application date) and in series [6] (until application date) was “could tolerate adverse reactions” in each case. The target lesion sum in series [6] (Jul. 15, 2015) was 63 mm; in series [6] (Oct. 16, 2015), 56 mm; in series [6] (Sep. 8, 2015) it was 57 mm. The “reduction of total target lesions versus baseline” value in series [6] (after 1 cycle (Jun. 25, 2015)) stood at 10 mm. Also, the total target lesions in series [6] (after 1 cycle (Jun. 25, 2015)) came to 66 mm.

Turning to “gemcitabine/cisplatin [reference compound]”, the “outcome of prior therapy (medical history)” value in series [4] (one treatment cycle each) is recorded as “unsatisfactory”.

With `CC(=O)O[C@@]12CO[C@@H]1C[C@H](O)[C@@]1(C)C(=O)[C@H](O)C3=C(C)[C@@H](OC(=O)[C@H](O)[C@@H](NC(=O)OC(C)(C)C)c4ccccc4)C[C@@](O)([C@@H](OC(=O)c4ccccc4)[C@H]21)C3(C)C` [docetaxel, reference compound], the “adverse reactions after prior chemotherapy (medical history)” value in series [6] (in vivo) was “bone marrow suppression, oral infection, pneumonia appeared”.
